Results taken from patent US20190275012A9, “SUBSTITUTED THIAZOLO-PYRIDINE COMPOUNDS AS MALT1 INHIBITORS” (Lupin Limited, priority 2016, published 2019).

Experiments:
full length MALT1 enzyme = target: T1, full length MALT1 enzyme (Homo sapiens, UniProt Q9UDY8); assay: MALT1 biochemical assay (fluorescence based, Ac-Leu-Arg-Ser-Arg-AMC cleavage); details: full length MALT1 protein, 2 h pre-incubation at RT, tetrapeptide substrate Ac-Leu-Arg-Ser-Arg-AMC, read-out: Malt 1 inhibition IC50
T1 construct: a fluorescence based assay with full length MALT1 enzyme
T1 sequence (Q9UDY8 1-824): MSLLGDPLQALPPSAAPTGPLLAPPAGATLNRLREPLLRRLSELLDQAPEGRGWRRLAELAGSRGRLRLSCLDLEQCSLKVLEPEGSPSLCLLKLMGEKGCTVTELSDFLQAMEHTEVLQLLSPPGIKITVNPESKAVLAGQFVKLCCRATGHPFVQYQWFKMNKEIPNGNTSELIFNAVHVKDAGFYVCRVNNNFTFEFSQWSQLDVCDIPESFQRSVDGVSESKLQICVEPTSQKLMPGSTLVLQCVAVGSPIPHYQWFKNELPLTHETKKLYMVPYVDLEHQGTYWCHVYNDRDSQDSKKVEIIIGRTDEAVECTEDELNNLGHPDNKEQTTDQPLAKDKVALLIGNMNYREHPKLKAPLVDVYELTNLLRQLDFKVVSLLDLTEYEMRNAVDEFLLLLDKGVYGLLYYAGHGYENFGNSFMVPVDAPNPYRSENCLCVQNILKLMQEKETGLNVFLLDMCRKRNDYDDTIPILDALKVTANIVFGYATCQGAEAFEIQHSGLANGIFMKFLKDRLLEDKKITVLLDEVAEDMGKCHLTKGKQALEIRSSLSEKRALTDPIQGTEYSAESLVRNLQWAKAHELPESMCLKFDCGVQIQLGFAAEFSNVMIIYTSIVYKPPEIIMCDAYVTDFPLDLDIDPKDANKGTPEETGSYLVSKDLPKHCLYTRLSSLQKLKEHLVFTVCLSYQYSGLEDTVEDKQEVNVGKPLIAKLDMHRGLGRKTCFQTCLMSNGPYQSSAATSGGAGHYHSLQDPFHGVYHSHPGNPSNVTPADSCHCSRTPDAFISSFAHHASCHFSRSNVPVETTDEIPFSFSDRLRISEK
Description: The biochemical potency of the MALT1 inhibitors was tested by using a fluorescence based assay with full length MALT1 enzyme. The assay principle makes use of the preferential cleavage by MALT1 after the Arginine residue. Thus, the substrate used is a tetrapeptide (Ac-Leu-Arg-Ser-Arg-AMC; Catalogue # SMAMC013, SM Biochemicals) which is cleaved by active MALT1 releasing the AMC which is fluorescent. Upon addition of the MALT1 protease inhibitors, the proteolytic activity (and accordingly AMC fluorescence) is reduced in a dose dependent manner. The kinetic characterization of the enzymatic reaction was measured by determining the Michaelis constant, Km, of the reaction (approximately 130=A/I). The assay buffer consisted of 50 mM MES, 150 mM NaCl, 0.1% w/v CHAPS, 1 M Ammonium citrate and 10 mM DTT (pH=7). The assay was established for the 384-well plate format using black microtiter square well plates (Optiplate 384-F, Perkin Elmer). The test compounds were dissolved in 100% DMSO at a stock concentration of 10 mM. Serial dilutions were made first in 100% DMSO. The final concentration of DMSO was 0.5% by wt.
For determining the extent of inhibition of MALT1 protease activity by MALT1 inhibitors, 10⇒| of the test compound solutions were pre-incubated with 10⇒| of MALT1 full length protein (100-300 ng protein/well) for 2 h at RT. This was followed by 10⇒| of substrate addition at a final concentration of 100⇒M for an additional 4-12 h. The increase in assay signal was linear over this period of time and proportional with increase in the enzyme content. The final concentrations of the test compounds typically ranged from 10000 nM to 0.03 nM in an alternate 3.16 and 3 serial dilutions. The positive control for the reaction contained enzyme and DMSO (without any test compound) and was considered to have 100% enzyme activity (0% inhibition) and the negative control containing only buffer and DMSO (without any enzyme) was considered to have no enzymatic activity (100% inhibition). The fluorescence was recorded in a Spectra Max plate reader, Molecular Devices, with a fluorescence excitation at 360 nm and emission recording at 460 nm. The fluorescence units were transformed to percentage inhibitions by using the positive and negative controls as references as per the following formula.
[formula] Positive control=Reaction containing enzyme+substrate+DMSO
Negative control=Reaction containing substrate+DMSO but no enzyme
The IC50 values of individual compounds were calculated with Non Linear Regression Analysis using Graph Pad Prism (Graph Pad software, Inc, USA).

[1] = system: NF-kB transcriptional activity in HEK-293-NF-kB-Luc cell line overexpressing MALT1; assay: NF-kB reporter assay (luciferase, MALT1 stably overexpressed); format: cell-based; details: Homo sapiens, 24 h, HEK-293-NF-kB-Luc cells stably overexpressing MALT1, 24 h treatment, Bright Glo luminescence; read-out: NF-kB inhibition IC50
Summary of the method: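 HEK-293-NF-κB-Luc cells stably overexpressing MALT1 were seeded overnight, then exposed to test compounds for 24 h. Bright Glo added 10 min at ambient temperature and luminescence read; % inhibition calculated against 0.1% DMSO controls.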

Row | SMILES | IC50 (full length MALT1 enzyme) [nM] | IC50 [1] [nM]
1 | COC(C)c1c(NC(=O)Nc2ccc(-c3cnco3)c(Cl)c2)cnc2sc(C)nc12 (single isomer, unassigned) [Compound 204, (S) or (R)-1-(3-Chloro-4-(oxazol-5-yl)phenyl)-3-(7-(1-methoxyethyl)-2-methylthiazolo[5,4-b]pyridin-6-yl)urea] | 101 to 500 | 101 to 500
2 | COC(C)c1c(NC(=O)Nc2cnc(-n3cccn3)c(C(F)(F)F)c2)cnc2sc(C)nc12 (single isomer, unassigned) [Compound 213b, (S) or (R)-1-(6-(1H-Pyrazol-1-yl)-5-(trifluoromethyl)pyridin-3-yl)-3-(7-(1-methoxyethyl)-2-methylthiazolo[5,4-b]pyridin-6-yl)urea] | 1 to 50 | 1 to 100
3 | CCc1nc2c(C(C)OC)c(NC(=O)Nc3ccc(-n4nccn4)c(Cl)c3)cnc2s1 (single isomer, unassigned) [Compound 233b, 1-(3-Chloro-4-(2H-1,2,3-triazol-2-yl)phenyl)-3-(2-ethyl-7-(1-methoxyethyl)thiazolo[5,4-b]pyridin-6-yl)urea] | 1 to 50 | 101 to 500
4 | COC(C)c1c(NC(=O)Nc2cnc(-n3cnnn3)c(C(F)(F)F)c2)cnc2sc(C)nc12 (single isomer, unassigned) [Compound 239, (S or R)-1-(6-(1H-Tetrazol-1-yl)-5-(trifluoromethyl)pyridin-3-yl)-3-(7-(1-methoxyethyl)-2-methylthiazolo[5,4-b]pyridin-6-yl)urea] | 1 to 50 | 1 to 100
5 | COC(CC1CC1)c1c(NC(=O)Nc2cnc(-n3nccn3)c(C(F)(F)F)c2)cnc2sc(C)nc12 (single isomer, unassigned) [Compound 240b, 1-(6-(2H-1,2,3-Triazol-2-yl)-5-(trifluoromethyl)pyridin-3-yl)-3-(7-(2-cyclopropyl-1-methoxyethyl)-2-methylthiazolo[5,4-b]pyridin-6-yl)urea] | 1 to 50 | 1 to 100
6 | CCOc1ncc(NC(=O)Nc2cnc3sc(C)nc3c2C2CC2)cc1Cl [Compound 4, 1-(5-Chloro-6-ethoxypyridin-3-yl)-3-(7-cyclopropyl-2-methylthiazolo[5,4-b]pyridin-6-yl)urea] | 1 to 50 | 501 to 1500
7 | Cc1nc2c(C3CC3)c(NC(=O)Nc3cc(C(F)(F)F)cn(C)c3=O)cnc2s1 [Compound 5, 1-(7-Cyclopropyl-2-methylthiazolo[5,4-b]pyridin-6-yl)-3-(1-methyl-2-oxo-5-(trifluoromethyl)-1,2-dihydropyridin-3-yl)urea] | 101 to 500 | 101 to 500
8 | Cc1nc2c(C3CC3)c(NC(=O)Nc3cncc(C(F)(F)F)c3)cnc2s1 [Compound 7, 1-(7-Cyclopropyl-2-methylthiazolo[5,4-b]pyridin-6-yl)-3-(5-(trifluoromethyl)pyridin-3-yl)urea] | 101 to 500 | 101 to 500
9 | COc1cc(F)ccc1-c1c(NC(=O)Nc2cnc(OC)c(Cl)c2)cnc2sc(C)nc12 [Compound 15, 1-(5-Chloro-6-methoxypyridin-3-yl)-3-(7-(4-fluoro-2-methoxyphenyl)-2-methylthiazolo[5,4-b]pyridin-6-yl)urea] | 1 to 50 | 501 to 1500
10 | Cc1nc2c(C3CC3)c(NC(=O)Nc3cnc(N4CCCS4(=O)=O)c(C(F)(F)F)c3)cnc2s1 [Compound 23, 1-(7-Cyclopropyl-2-methylthiazolo[5,4-b]pyridin-6-yl)-3-(6-(1,1-dioxidoisothiazolidin-2-yl)-5-(trifluoromethyl)pyridin-3-yl)urea] | 51 to 100 | 101 to 500
11 | CCc1c(NC(=O)Nc2ccc(OC)c(Cl)c2)cnc2sc(C)nc12 [Compound 25, 1-(3-Chloro-4-methoxyphenyl)-3-(7-ethyl-2-methylthiazolo[5,4-b]pyridin-6-yl)urea] | 1 to 50 | 501 to 1500
12 | COC1CCN(c2c(NC(=O)Nc3cnc(-n4nccn4)c(Cl)c3)cnc3sc(C)nc23)CC1 [Compound 29, 1-(5-Chloro-6-(2H-1,2,3-triazol-2-yl)pyridin-3-yl)-3-(7-(4-methoxypiperidin-1-yl)-2-methylthiazolo[5,4-b]pyridin-6-yl)urea] | 51 to 100 | 101 to 500
13 | CCc1nc2c(C3CC3)c(NC(=O)Nc3cnc(-n4nccn4)c(Cl)c3)cnc2s1 [Compound 31, 1-(5-Chloro-6-(2H-1,2,3-triazol-2-yl)pyridin-3-yl)-3-(7-cyclopropyl-2-ethylthiazolo[5,4-b]pyridin-6-yl)urea] | 1 to 50 | 101 to 500
14 | Cc1nc2c(N3CCC(C)CC3)c(NC(=O)Nc3cnc(-n4nccn4)c(Cl)c3)cnc2s1 [Compound 37, 1-(5-Chloro-6-(2H-1,2,3-triazol-2-yl)pyridin-3-yl)-3-(2-methyl-7-(4-methylpiperidin-1-yl)thiazolo[5,4-b]pyridin-6-yl)urea] | 51 to 100 | 101 to 500
15 | Cc1nc2c(N3CCCCC3)c(NC(=O)Nc3cnc(-n4nccn4)c(Cl)c3)cnc2s1 [Compound 40, 1-(5-Chloro-6-(2H-1,2,3-triazol-2-yl)pyridin-3-yl)-3-(2-methyl-7-(piperidin-1-yl)thiazolo[5,4-b]pyridin-6-yl)urea] | 1 to 50 | 1 to 100
16 | Cc1nc2c(C3CC3)c(NC(=O)Nc3cnc(OCCC4CCN(C)CC4)c(Cl)c3)cnc2s1 [Compound 73, 1-(5-Chloro-6-(2-(1-methylpiperidin-4-yl)ethoxy)pyridin-3-yl)-3-(7-cyclopropyl-2-methylthiazolo[5,4-b]pyridin-6-yl)urea] | 51 to 100 | 101 to 500
17 | COC(C)(C)c1c(NC(=O)Nc2ccc(-n3nccn3)c(Cl)c2)cnc2sc(C)nc12 [Compound 98, 1-(3-Chloro-4-(2H-1,2,3-triazol-2-yl)phenyl)-3-(7-(2-methoxypropan-2-yl)-2-methylthiazolo[5,4-b]pyridin-6-yl)urea] | 1 to 50 | 1 to 100
18 | COCC1(c2c(NC(=O)Nc3cnc(-n4nccn4)c(C(F)(F)F)c3)cnc3sc(C)nc23)CC1 [Compound 102, 1-(6-(2H-1,2,3-Triazol-2-yl)-5-(trifluoromethyl)pyridin-3-yl)-3-(7-(1-(methoxymethyl)cyclopropyl)-2-methylthiazolo[5,4-b]pyridin-6-yl)urea] | 1 to 50 | 1 to 100
19 | COc1ncc(NC(=O)Nc2cnc3sc(C)nc3c2N(C)C)cc1Cl [Compound 110, 1-(5-Chloro-6-methoxypyridin-3-yl)-3-(7-(dimethylamino)-2-methylthiazolo[5,4-b]pyridin-6-yl)urea] | 51 to 100 | 501 to 1500
20 | Cc1nc2c(C3CC3)c(NC(=O)Nc3ccc(-n4ccnn4)c(Cl)c3)cnc2s1 [Compound 169, 1-(3-Chloro-4-(1H-1,2,3-triazol-1-yl)phenyl)-3-(7-cyclopropyl-2-methylthiazolo[5,4-b]pyridin-6-yl)urea] | 1 to 50 | 101 to 500
